This is an account of results in ChEMBL document CHEMBL1201862, “PubChem BioAssay data set” (2004).

Among the test systems are 786-0; A498; A549; HCC 2998; HCT-15; IGROV-1; K562; MDA-MB-231; MDA-N; MOLT-4; NCI-H522; OVCAR-5; SF-539; SK-MEL-5; SK-OV-3; SNB-75; SW-620; U-251; UACC-257; UO-31.
What all share (assay): DTP human tumour cell line panel, 48 h

Molecules are shown by their SMILES.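 Following 48 hours of exposure in 96-well plates, responses at five concentrations were used to interpolate endpoints linearly. Here, GI50 denotes the concentration required for 50% inhibition of growth.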 Calls of active or inactive are those of the source. Rule as the data show it: active = GI50 up to about 1.1 µM and inactive = higher.

Usually GI50 stands for the concentration that inhibits growth by half. `COC1/C=C/C(C)C(OC)CC(O)/C=C/C(C)C(C(C)C(OC)C(C)CCC(=O)C(C)C(C/C=C/N(C)C=O)OC)OC(=O)/C=C/C=C(\C)CC(OC)CC2=CC(=O)O[C@@H](C(C)C(OC)C1)[C@H]2O` (some centres undefined): the GI50 with 786-0 was 0.0977 µM (active); in the assay with A498, 0.056 µM (active); in the assay on A549 it was 0.119 µM (active); in the assay with HCC 2998, 0.175 µM (active); with HCT-15 it was 0.0556 µM; in the assay on IGROV-1, 0.0708 µM (active). The GI50 was 17.1 µM (inactive) with K562; 0.0395 µM (active) in the assay with MDA-MB-231; 0.0951 µM (active) with MDA-N; 0.214 µM (active) with MOLT-4; 0.146 µM (active) in the assay with NCI-H522; 0.177 µM (active) in the assay on OVCAR-5. Moreover, the GI50 is 0.114 µM (active) in the assay with SF-539; 0.125 µM (active) with SK-MEL-5; 0.151 µM (active) in the assay with SK-OV-3; 0.0697 µM (active) with SNB-75; 0.0664 µM (active) in the assay on SW-620; 0.0706 µM (active) in the assay on U-251. Also, the GI50 in the assay on UACC-257 is 0.11 µM (active); in the assay on UO-31, 0.0998 µM (active).
On to `O=C1C=CC(=O)c2ccc(=O)ccc21`, for which the GI50 is 17.5 µM (inactive) in the assay with 786-0; 16.9 µM (inactive) in the assay with A498; 30.1 µM (inactive) in the assay on A549; 17.2 µM (inactive) in the assay on HCC 2998; 17 µM in the assay with HCT-15; 18.8 µM (inactive) in the assay on IGROV-1. Further, the GI50 in the assay on K562 was 2.4 µM (inactive); in the assay with MDA-MB-231, 20.5 µM (inactive); in the assay on MDA-N, 13.3 µM (inactive); in the assay on MOLT-4 it was 1.87 µM (inactive); in the assay on NCI-H522, 2.09 µM (inactive); in the assay with OVCAR-5 it was 19.9 µM (inactive). For the same compound, the GI50 with SF-539 was 21.8 µM (inactive); in the assay with SK-MEL-5, 19.7 µM (inactive); in the assay with SK-OV-3, 24.1 µM (inactive); in the assay on SNB-75 it was 19.9 µM (inactive); in the assay with SW-620, 3.74 µM (inactive); with U-251 it was 16.4 µM (inactive). The GI50 with UACC-257 is 17.1 µM (inactive); in the assay on UO-31, 15 µM (inactive).
Turning to `[O-][n+]1nc(N2CCOCC2)nc2ccccc21`, the GI50 in the assay with 786-0 was > 100 µM (inactive); in the assay with A498, 43.3 µM (inactive); in the assay with A549 it was > 100 µM (inactive); in the assay on HCC 2998, > 100 µM (inactive); in the assay with HCT-15 it was > 100 µM; in the assay on IGROV-1 it was > 100 µM (inactive). Further, the GI50 in the assay on K562, in the assay on MDA-MB-231, in the assay on MDA-N, with MOLT-4, in the assay with NCI-H522 and in the assay on OVCAR-5 was > 100 µM (inactive) in each case. Moreover, the GI50 in the assay with SF-539, in the assay on SK-OV-3, with SNB-75, in the assay on SW-620, with U-251 and in the assay with UACC-257 was > 100 µM (inactive) each time. For the same compound, the GI50 with UO-31 is > 100 µM (inactive).
Regarding `COC(=O)/C=C\C(C#N)(C#N)/N=C/c1ccc(OC)cc1`, the GI50 with 786-0 was 1.99 µM (inactive); with A498, 18.5 µM (inactive); with A549, 19.5 µM (inactive); in the assay on HCC 2998, 20.6 µM (inactive); in the assay on HCT-15, 3.85 µM; with IGROV-1, 15 µM (inactive). In addition, the GI50 with K562 is 3.41 µM (inactive); in the assay with MDA-MB-231 it was 18 µM (inactive); with MDA-N, 4.75 µM (inactive); with MOLT-4, 1.06 µM (active); in the assay on NCI-H522, 0.615 µM (active); with OVCAR-5, 21.7 µM (inactive). Further, the GI50 in the assay on SF-539 is 4.99 µM (inactive); in the assay with SK-MEL-5 it was 17.8 µM (inactive); with SK-OV-3 it was 17.3 µM (inactive); in the assay on SNB-75, 16.4 µM (inactive); with SW-620 it was 1.99 µM (inactive); in the assay with U-251 it was 17.9 µM (inactive). Further, the values for the GI50 in the assay on UACC-257 and in the assay with UO-31 were 4.83 µM (inactive) and 2.25 µM (inactive), respectively.
As to `COCOC1C=CCCCC2=CC(C)=C(CC1)O2` (centres undefined), the GI50 in the assay on 786-0 was > 100 µM (inactive); in the assay with A498, > 100 µM (inactive); in the assay with A549 it was > 100 µM (inactive); with HCC 2998 it was > 100 µM (inactive); with HCT-15, > 100 µM; in the assay on IGROV-1, > 100 µM (inactive). Besides, the GI50 in the assay with K562 is > 100 µM (inactive); in the assay with MDA-MB-231 it was > 100 µM (inactive); in the assay with MDA-N it was > 100 µM (inactive); with MOLT-4, 42.3 µM (inactive); in the assay on NCI-H522 it was > 100 µM (inactive); with OVCAR-5, > 100 µM (inactive). Moreover, the GI50 with SF-539, in the assay on SK-MEL-5, with SK-OV-3, in the assay with SNB-75, with SW-620 and in the assay on U-251 was > 100 µM (inactive) each time. Besides, the GI50 with UACC-257 and in the assay with UO-31 was > 100 µM (inactive) each time.
Consider `COc1cc(CCCOC(=O)/C=C/c2ccc(O)c(O)c2)cc(O)c1O`, for which the GI50 with 786-0 was 49 µM (inactive); in the assay with A498, > 100 µM (inactive); in the assay on A549, 69.2 µM (inactive); in the assay with HCC 2998, > 100 µM (inactive); in the assay with HCT-15, 91.8 µM; in the assay on IGROV-1, 80.2 µM (inactive). For the same compound, the GI50 is 33.2 µM (inactive) in the assay on K562; 28.8 µM (inactive) in the assay on MDA-MB-231; 22.8 µM (inactive) with MDA-N; 27.5 µM (inactive) in the assay on MOLT-4; 15 µM (inactive) in the assay on NCI-H522; > 100 µM (inactive) in the assay with OVCAR-5. The GI50 with SF-539 is 28.4 µM (inactive); in the assay on SK-MEL-5, 31.2 µM (inactive); in the assay with SK-OV-3, > 100 µM (inactive); with SNB-75, 35.2 µM (inactive); in the assay on SW-620, 18.8 µM (inactive); with U-251, 36.8 µM (inactive). The results for the GI50 in the assay on UACC-257 and with UO-31 were > 100 µM (inactive) and 37.5 µM (inactive), respectively.
Consider `O=C1CC(c2n[nH]c3ccccc23)C(=O)N1c1ccccc1` (centres undefined), for which the GI50 in the assay on 786-0 was > 100 µM (inactive); in the assay on A498, > 100 µM (inactive); with A549, > 100 µM (inactive); in the assay on HCC 2998, > 100 µM (inactive); with HCT-15 it was > 100 µM; in the assay on IGROV-1, > 100 µM (inactive). Besides, the GI50 in the assay on K562 was 43.9 µM (inactive); with MDA-MB-231, > 100 µM (inactive); in the assay on MDA-N, > 100 µM (inactive); with MOLT-4, > 74 µM (inactive); with NCI-H522, > 100 µM (inactive); with OVCAR-5, > 100 µM (inactive). For the same compound, the GI50 was > 100 µM (inactive) in the assay on SF-539; > 100 µM (inactive) in the assay with SK-MEL-5; > 100 µM (inactive) in the assay with SK-OV-3; > 100 µM (inactive) in the assay on SNB-75; > 84.1 µM (inactive) in the assay on SW-620; > 100 µM (inactive) with U-251. Also, the GI50 in the assay on UACC-257 and with UO-31 was > 100 µM (inactive) throughout.
